From US11026944B2, “Compositions and methods for treating insomnia” (Eisai R&D Management Co., Ltd., priority 2014, dated 2021)

System: subjects with insomnia
Assay: 201 Study: polysomnography (SE, LPS, WASO) dose-response
Type: in vivo, human
Protocol: This was a multi-center, randomized, double-blind, adaptive design, dose-response study in subjects with insomnia. Subjects were randomized to 1 of 6 doses of compound A (1 mg, 2.5 mg, 5 mg, 10 mg, 15 mg and 25 mg) or placebo.
The study had 2 phases: Prerandomization and Randomization. The Prerandomization Phase lasted up to 21 days and consisted of a Screening Period (Days-21 to -2) and a Baseline Period (Day-1). After the Baseline Period, all eligible subjects were randomized in a double-blind manner to receive compound A or placebo for 15 nights during the Treatment Period (Days 1 to 15). All subjects then received placebo in a single-blind manner, for 2 nights (Days 16 to 17) during the Rebound Insomnia Assessment Period (Days 16 to 18). […] All subjects came to the clinic for screening procedures. During the Screening Period, subjects completed the Sleep Diary each day. Polysomnographic sleep was measured during the Screening Period on 2 consecutive nights between Day-9 and Day-3. The 8-hour polysomnograms (PSGs) were started at the median habitual bedtime calculated from responses on the Sleep Diary, which were completed for 7 days before the first PSG night. These recordings served as both eligibility screening PSGs and as Baseline PSGs. Subjects could leave the clinic between the screening/Baseline PSG nights.
All subjects returned to the clinic on Day-1 for Baseline Period procedures. They remained in the clinic until Day 3. Morning assessments on Day 1 provided the Baseline values for the KSS, the Digit Symbol Substitution Test (DSST), and the Reaction Time Index (RTI). Assessments at 6 hours after waketime provided the Baseline values for the Waking Function Battery (WFB), and the Profile of Mood States-Brief (POMS-B). Subjects were then randomized to receive 1 of 6 doses of compound A or placebo for the next 15 days. Study drugs were tablets containing compound A-matched placebo or compound A of 1 mg, 2.5 mg, 5 mg, or 10 mg and to be ingested 30 minutes before the median habitual bedtime calculated from their Sleep Diary responses during the Screening Period. An 8-hour PSG, starting at the same bedtime as used for the screening and Baseline PSG nights, was recorded on the first 2 treatment nights (Days 1 and 2). The Sleep Diary continued to be completed each day in the clinic, and assessments of insomnia severity (ISI), next-day residual effects (KSS, DSST, and RTI) were conducted while subjects were in the clinic. On specified study days, plasma concentrations of compound A were assessed while subjects were in the clinic in the morning after awakening and at trough just before dosing.
Subjects continued to take compound A or placebo 30 minutes before their anticipated, self-selected bedtime and continued to complete the Sleep Diary each day while at home during the Treatment Period. On Day 14 of the Treatment Period, subjects returned to the clinic. They remained in the clinic for 4 nights and the intervening days until Day 18. Eight-hour PSGs were recorded each night in the clinic, to start at the median habitual bedtime calculated from responses on the Sleep Diary completed on Days 3 to 13. The Sleep Diary continued to be completed each day in the clinic, and the ISI, KSS, DSST, RTI, were administered at prespecified time points during the daytime hours.
In Table 5, “Baseline” was defined as the mean of the screening PSG 1 and 2, within −9 to −3 days of randomization. “LS Means Diff” refers to the differences between LS Means of Placebo and each compound A dose, “95% CI” means to 95% CI of LS Means Diff. “p-value” was analyzed using analysis of covariance (ANCOVA) with baseline as a covariate.
In Table 7, “Baseline” was defined as the mean of the screening PSG 1 and 2, within −9 to −3 days of randomization. “p-value” was analyzed using analysis of covariance (ANCOVA) with baseline as a covariate.
In Table 8, “Baseline” was defined as the mean of the screening PSG 1 and 2, within −9 to −3 days of randomization. […]

[1] = Days 14 & 15 minus Days 1 & 2, 1 mg nightly
[2] = Days 14 & 15 minus Days 1 & 2, 2.5 mg nightly
[3] = Days 14 & 15 minus Days 1 & 2, 5 mg nightly
[4] = Days 14 & 15 minus Days 1 & 2, 10 mg nightly
[5] = Days 14 & 15 minus Days 1 & 2, 15 mg nightly
[6] = Days 14 & 15 minus Days 1 & 2, 25 mg nightly

**Q.** What does the source list for `Cc1ncc(OC[C@@]2(c3cccc(F)c3)C[C@H]2C(=O)Nc2ccc(F)cn2)c(C)n1` [Compound A, (1R,2 S)-2-(((2,4-dimethylpyrimidin-5-yl)oxy)methyl)-2-(3-fluorophenyl)-N-(5-fluoropyridin-2-yl) cyclopropanecarboxamide]?
**A.** Change from Baseline in LPS, Mean of Days 1 & 2: Geometric Mean Ratio (compound A/placebo) (1 mg nightly): 0.77; Change from Baseline in LPS, Mean of Days 14 & 15: Geometric Mean Ratio (compound A /placebo) (1 mg nightly): 0.73; Change from Baseline in SE, Mean of Days 1 & 2: LS Means Diff vs placebo (1 mg nightly): 4.57%; Change from Baseline in SE, Mean of Days 1 & 2: Mean (1 mg nightly): 21.1%; Change from Baseline in SE, Mean of Days 14 & 15: LS Means Diff vs placebo (1 mg nightly): 0.34%; Change from Baseline in SE, Mean of Days 14 & 15: Mean (1 mg nightly): 17.5%; Change from Baseline in WASO, Mean of Days 1 & 2: LS Means Diff vs placebo (1 mg nightly): -11.1 min; Change from Baseline in WASO, Mean of Days 1 & 2: Mean (1 mg nightly): -60.9 min; Change from Baseline in WASO, Mean of Days 14 & 15: LS Means Diff vs placebo (1 mg nightly): 5.7 min; Change from Baseline in WASO, Mean of Days 14 & 15: Mean (1 mg nightly): -43.6 min; LPS geometric mean ratio vs placebo, significance (1 mg, Mean of Days 1/2): not statistically significant; Change from Baseline in LPS, Mean of Days 1 & 2: Geometric Mean Ratio (compound A/placebo) (2.5 mg nightly): 0.55; Change from Baseline in LPS, Mean of Days 14 & 15: Geometric Mean Ratio (compound A /placebo) (2.5 mg nightly): 0.49; Change from Baseline in SE, Mean of Days 1 & 2: LS Means Diff vs placebo (2.5 mg nightly): 4.44%; Change from Baseline in SE, Mean of Days 1 & 2: Mean (2.5 mg nightly): 21.3%; Change from Baseline in SE, Mean of Days 14 & 15: LS Means Diff vs placebo (2.5 mg nightly): 3.94%; Change from Baseline in SE, Mean of Days 14 & 15: Mean (2.5 mg nightly): 20.7%; Change from Baseline in WASO, Mean of Days 1 & 2: LS Means Diff vs placebo (2.5 mg nightly): -2.3 min; Change from Baseline in WASO, Mean of Days 1 & 2: Mean (2.5 mg nightly): -51.1 min; Change from Baseline in WASO, Mean of Days 14 & 15: LS Means Diff vs placebo (2.5 mg nightly): -2.3 min; Change from Baseline in WASO, Mean of Days 14 & 15: Mean (2.5 mg nightly): -48.9 min; Change from Baseline in LPS, Mean of Days 1 & 2: Geometric Mean Ratio (compound A/placebo) (5 mg nightly): 0.60; Change from Baseline in LPS, Mean of Days 14 & 15: Geometric Mean Ratio (compound A /placebo) (5 mg nightly): 0.47; Change from Baseline in SE, Mean of Days 1 & 2: LS Means Diff vs placebo (5 mg nightly): 5.74%; Change from Baseline in SE, Mean of Days 1 & 2: Mean (5 mg nightly): 21.2%; Change from Baseline in SE, Mean of Days 14 & 15: LS Means Diff vs placebo (5 mg nightly): 5.76%; Change from Baseline in SE, Mean of Days 14 & 15: Mean (5 mg nightly): 21.0%; Change from Baseline in WASO, Mean of Days 1 & 2: LS Means Diff vs placebo (5 mg nightly): -11.3 min; Change from Baseline in WASO, Mean of Days 1 & 2: Mean (5 mg nightly): -55.6 min; Change from Baseline in WASO, Mean of Days 14 & 15: LS Means Diff vs placebo (5 mg nightly): -10.7 min; Change from Baseline in WASO, Mean of Days 14 & 15: Mean (5 mg nightly): -52.2 min; LPS, Days 1/2 compared to Days 14/15 (10 mg): further improvement in LPS over time; Change from Baseline in LPS, Mean of Days 1 & 2: Geometric Mean Ratio (compound A/placebo) (10 mg nightly): 0.54; Change from Baseline in LPS, Mean of Days 14 & 15: Geometric Mean Ratio (compound A /placebo) (10 mg nightly): 0.32; Change from Baseline in SE, Mean of Days 1 & 2: LS Means Diff vs placebo (10 mg nightly): 8.09%; Change from Baseline in SE, Mean of Days 1 & 2: Mean (10 mg nightly): 21.9%; Change from Baseline in SE, Mean of Days 14 & 15: LS Means Diff vs placebo (10 mg nightly): 7.78%; Change from Baseline in SE, Mean of Days 14 & 15: Mean (10 mg nightly): 21.7%; Change from Baseline in WASO, Mean of Days 1 & 2: LS Means Diff vs placebo (10 mg nightly): -19.8 min; Change from Baseline in WASO, Mean of Days 1 & 2: Mean (10 mg nightly): -56.7 min; Change from Baseline in WASO, Mean of Days 14 & 15: LS Means Diff vs placebo (10 mg nightly): -14.7 min; Change from Baseline in WASO, Mean of Days 14 & 15: Mean (10 mg nightly): -48.5 min; Change from Baseline in LPS, Mean of Days 1 & 2: Geometric Mean Ratio (compound A/placebo) (15 mg nightly): 0.52; Change from Baseline in LPS, Mean of Days 14 & 15: Geometric Mean Ratio (compound A /placebo) (15 mg nightly): 0.41; Change from Baseline in SE, Mean of Days 1 & 2: LS Means Diff vs placebo (15 mg nightly): 10.06%; Change from Baseline in SE, Mean of Days 1 & 2: Mean (15 mg nightly): 23.8%; Change from Baseline in SE, Mean of Days 14 & 15: LS Means Diff vs placebo (15 mg nightly): 7.89%; Change from Baseline in SE, Mean of Days 14 & 15: Mean (15 mg nightly): 21.2%; Change from Baseline in WASO, Mean of Days 1 & 2: LS Means Diff vs placebo (15 mg nightly): -29.3 min; Change from Baseline in WASO, Mean of Days 1 & 2: Mean (15 mg nightly): -66.1 min; Change from Baseline in WASO, Mean of Days 14 & 15: LS Means Diff vs placebo (15 mg nightly): -20.8 min; Change from Baseline in WASO, Mean of Days 14 & 15: Mean (15 mg nightly): -53.4 min; Change from Baseline in LPS, Mean of Days 1 & 2: Geometric Mean Ratio (compound A/placebo) (25 mg nightly): 0.39; Change from Baseline in LPS, Mean of Days 14 & 15: Geometric Mean Ratio (compound A /placebo) (25 mg nightly): 0.34; Change from Baseline in SE, Mean of Days 1 & 2: LS Means Diff vs placebo (25 mg nightly): 10.13%; Change from Baseline in SE, Mean of Days 1 & 2: Mean (25 mg nightly): 22.7%; Change from Baseline in SE, Mean of Days 14 & 15: LS Means Diff vs placebo (25 mg nightly): 8.87%; Change from Baseline in SE, Mean of Days 14 & 15: Mean (25 mg nightly): 21.4%; Change from Baseline in WASO, Mean of Days 1 & 2: LS Means Diff vs placebo (25 mg nightly): -25.8 min; Change from Baseline in WASO, Mean of Days 1 & 2: Mean (25 mg nightly): -62.3 min; Change from Baseline in WASO, Mean of Days 14 & 15: LS Means Diff vs placebo (25 mg nightly): -21.5 min; Change from Baseline in WASO, Mean of Days 14 & 15: Mean (25 mg nightly): -53.9 min; SE (B)-(A) Potential Habituation Effect: LS Means Diff vs placebo [1]: −3.3%; SE (B)-(A) Potential Habituation Effect: Mean [1]: −4.0%; WASO (B)-(A) Potential Habituation Effect: LS Means Diff vs placebo [1]: 13.2 min; WASO (B)-(A) Potential Habituation Effect: Mean [1]: 18.0 min; SE (B)-(A) Potential Habituation Effect: LS Means Diff vs placebo [2]: 0.3%; SE (B)-(A) Potential Habituation Effect: Mean [2]: −0.5%; WASO (B)-(A) Potential Habituation Effect: LS Means Diff vs placebo [2]: -2.9 min; WASO (B)-(A) Potential Habituation Effect: Mean [2]: 2.2 min; SE (B)-(A) Potential Habituation Effect: LS Means Diff vs placebo [3]: 1.0%; SE (B)-(A) Potential Habituation Effect: Mean [3]: 0.1%; WASO (B)-(A) Potential Habituation Effect: LS Means Diff vs placebo [3]: -2.9 min; WASO (B)-(A) Potential Habituation Effect: Mean [3]: 2.7 min; SE (B)-(A) Potential Habituation Effect: LS Means Diff vs placebo [4]: 0.3%; SE (B)-(A) Potential Habituation Effect: Mean [4]: −0.7%; WASO (B)-(A) Potential Habituation Effect: LS Means Diff vs placebo [4]: 2.8 min; WASO (B)-(A) Potential Habituation Effect: Mean [4]: 9.3 min; SE (B)-(A) Potential Habituation Effect: LS Means Diff vs placebo [5]: −1.3%; SE (B)-(A) Potential Habituation Effect: Mean [5]: −2.3%; WASO (B)-(A) Potential Habituation Effect: LS Means Diff vs placebo [5]: 5.2 min; WASO (B)-(A) Potential Habituation Effect: Mean [5]: 11.8 min; SE (B)-(A) Potential Habituation Effect: LS Means Diff vs placebo [6]: −1.1%; SE (B)-(A) Potential Habituation Effect: Mean [6]: −2.1%; WASO (B)-(A) Potential Habituation Effect: LS Means Diff vs placebo [6]: 2.7 min; WASO (B)-(A) Potential Habituation Effect: Mean [6]: 9.3 min; LPS (B)-(A) Potential Habituation Effect: Geometric Mean Ratio (compound A/placebo) (Days 14 & 15 vs Days 1 & 2, 1 mg nightly): 0.93; LPS (B)-(A) Potential Habituation Effect: Geometric Mean Ratio (compound A/placebo) (Days 14 & 15 vs Days 1 & 2, 2.5 mg nightly): 0.90; LPS (B)-(A) Potential Habituation Effect: Geometric Mean Ratio (compound A/placebo) (Days 14 & 15 vs Days 1 & 2, 5 mg nightly): 0.77; LPS (B)-(A) Potential Habituation Effect: Geometric Mean Ratio (compound A/placebo) (Days 14 & 15 vs Days 1 & 2, 10 mg nightly): 0.60; LPS (B)-(A) Potential Habituation Effect: Geometric Mean Ratio (compound A/placebo) (Days 14 & 15 vs Days 1 & 2, 15 mg nightly): 0.76; LPS (B)-(A) Potential Habituation Effect: Geometric Mean Ratio (compound A/placebo) (Days 14 & 15 vs Days 1 & 2, 25 mg nightly): 0.89; WASO, Days 1/2 compared to Days 14/15 (all doses): no statistical evidence of an increase or decrease in WASO; LPS geometric mean ratios vs placebo, significance (all other doses (2.5-25 mg), Mean of Days 1/2): evidence of statistical significance; WASO change from baseline vs placebo, significance (mean of Days 1/2, doses of 10 mg and above): statistically significant against placebo; WASO change from baseline vs placebo, significance (mean of Days 14/15, doses 15 mg and above): statistically significant against placebo
